Key:
[1] = biological target: C-Raf Raf-1 (truncated), active (Homo sapiens, UniProt P04049, Y340D/Y341D); test: C-Raf kinase inhibition (MAPH assay / IMAP assay); conditions: read-out: Biochemical IC50 C-Raf
Excerpt: We characterized the in vitro inhibitory activity against protein kinases of compounds of the present invention by determining their IC50 values (see Table 2).
Kinase: C-Raf Raf-1 (truncated), active (Upstate; cat. no. 14-352)
Reaction Temperature: room temperature
Assay Plate: 96 well U bottom plate (Greiner, 650161)
MultiScreen-PH Plate: 96 well MAPH Filter Plates (Millipore, MAPHNOB50)
Filter Washing Solution: 0.75% H3PO4
Scintillation Liquid: Supermix Liquid Scintillator (PerkinElmer, 1200-439)
Negative Control (C−): 100 mM EDTA, no inhibitor
Positive Control (C+): no inhibitor
Reaction Buffer (Final Concentration):
Final Assay Concentrations:
Kinase: Use kinase conc. yielding 10% ATP turnover as determined in titration experiment.
Adenosine 5′-[γ-^33P]triphosphate: 12.5 μCi/ml (Amersham Biosciences, BF1000)
Substrate: Myelin Basic Protein 57.8 μM (Invitrogen, 13228-010)
Pipetting Sequence: • 1) Add 10 μl 4-fold concentrated substrate+4-fold concentrated ATP in 3-fold concentrated reaction buffer to each well of assay plate • 2) Add 10 μl […] concentrated inhibitor in 4% DMSO in H2O to each well except to C− and C+ wells (starting point: final inhibitor concentration 10 μM; IC50 determination based on dilution series) • 3) Add 10 μl 4% DMSO in H2O to C− and C+ wells • 4) Add 10 μl 500 mM EDTA in H2O to C− wells • 5) Add 10 μl 50 μCi/ml adenosine 5′-[γ-^33P]triphosphate in H2O to each well • 6) Add 10 μl […] concentrated kinase in Reaction Buffer to each well • 7) Incubate 1 hr at room temperature • 8) Add 10 μl 50 mM EDTA in H2O to each well except to C− wells • 9) Prepare MAPH plates by adding 200 μl 0.75% H3PO4 to each well • 10) Exhaust 0.75% H3PO4 using Millipore vacuum station • 11) Add 60 μl 0.75% H3PO4 to each well of MAPH filter plate • 12) Transfer 30 μl sample per well from assay plate to corresponding well of MAPH filter plate • 13) Incubate 30 min at room temperature • 14) Wash each well of MAPH filter plates 3× with 200 μl 0.75% H3PO4 using Millipore vacuum station • 15) Add 20 μl scintillation liquid to each well of MAPH filter plate • 16) Seal MAPH filter plate • 17) Store MAPH filter plate 30 min in darkness • 18) Quantify radioactivity using scintillation counter (MicroBeta, Perkin-Elmer)
Reaction Volume: 8.0108 μl
IMAP Incubation Time: 60 min
Assay Plate: 384 well U bottom, PP, black, low volume (Corning, 3676)
Compound Plate: 384 well U bottom, PS (Falcon, 3995)
IMAP Binding Buffer A: Molecular Devices, R7282
IMAP Binding Buffer B: Molecular Devices, R7283
IMAP Binding Reagent: Molecular Devices, R7207
Negative Control (C−): no kinase, no inhibitor
Reation buffer: 20 mM Hepes, pH 7.5 • 1 mM DTT • 10 mM MnCl2 • 0.01% Brij35
Kinase: Kinase conc. yielding 50% substrate turnover as determined in titration experiment • c-Raf (Upstate 14-352)
Substrate: 5F1-SGQLIDSMANSFV-NH2 400 nM (jpt Peptide Technologies GmbH, Berlin, Germany)
IMAP Binding Solution: 75% IMAP Binding Buffer A • 25% IMAP Binding Buffer B • IMAP Binding Reagent 1:800
Pipetting Sequence: • 1) Add 6 μl 1.33-fold concentrated substrate+1.33-fold concentrated ATP in 1-fold concentrated reaction buffer to each well of assay plate • 2) Add 10.8 nl 740-fold concentrated inhibitor in 100% DMSO to each well except to C− and C+ wells using pintool (CyBio, Jena, Germany) (starting point: final inhibitor concentration 10 μM; IC50 determination based on dilution series) • 3) Add 10.8 nl 100% DMSO to C− and C+ wells using pintool • 4) Add 2 μl reaction buffer to C− wells • 5) Add 2 μl 4-fold concentrated kinase in reaction buffer to each well except C− wells • 6) Incubate according to reaction time at room temperature • 7) Add 15 μl IMAP binding solution to each well • 8) Incubate according to IMAP incubation time at room temperature • 9) Measure fluorescence polarization (Analyst GT, Molecular Devices)

[2] = biological target: B-Raf delta1-415 (Homo sapiens, UniProt P15056); test: B-Raf kinase inhibition (MAPH filter plate, 33P-ATP, MEK1 substrate); conditions: read-out: Biochemical IC50 B-Raf
Sequence of B-Raf delta1-415 (P15056 416-766): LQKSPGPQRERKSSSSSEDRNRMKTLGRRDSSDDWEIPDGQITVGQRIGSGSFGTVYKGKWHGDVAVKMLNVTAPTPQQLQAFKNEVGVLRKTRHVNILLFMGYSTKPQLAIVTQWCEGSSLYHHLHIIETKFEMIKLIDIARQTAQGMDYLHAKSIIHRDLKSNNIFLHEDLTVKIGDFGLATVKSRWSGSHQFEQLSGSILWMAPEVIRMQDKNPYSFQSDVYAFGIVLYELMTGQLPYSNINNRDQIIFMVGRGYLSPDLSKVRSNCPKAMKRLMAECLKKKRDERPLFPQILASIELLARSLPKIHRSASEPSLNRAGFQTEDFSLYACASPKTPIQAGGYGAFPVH
In short: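 Radiometric filter-binding assay with B-Raf delta1-415 at a level giving 50% turnover, MEK1 substrate and 33P-ATP (12.5 μCi/ml) in 20 mM Mops pH 7.0 with Mg/Mn, 1 h at room temperature. Inhibitor dilution series from 10 μM; EDTA-stopped reactions captured on phosphocellulose filters, counted by scintillation for IC50.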

[3] = tested on: HT-29 tumor cells; test: Anti-proliferative activity, SRB assay; format: cell-based, human; conditions: Homo sapiens, HT-29, 72 h, 72 hours exposure, read-out: CELLULAR IC50 HT-29
In short: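 Cells at 3,000-15,000/well, plated 24 h before compound, exposed to a concentration range for 72 hours. Proliferation measured by SRB staining after cold TCA fixation, absorbance at OD570; IC50 estimated from % inhibition versus DMSO-treated cells.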

Sequence of C-Raf Raf-1 (truncated), active (P04049 306-648 Y340D/Y341D): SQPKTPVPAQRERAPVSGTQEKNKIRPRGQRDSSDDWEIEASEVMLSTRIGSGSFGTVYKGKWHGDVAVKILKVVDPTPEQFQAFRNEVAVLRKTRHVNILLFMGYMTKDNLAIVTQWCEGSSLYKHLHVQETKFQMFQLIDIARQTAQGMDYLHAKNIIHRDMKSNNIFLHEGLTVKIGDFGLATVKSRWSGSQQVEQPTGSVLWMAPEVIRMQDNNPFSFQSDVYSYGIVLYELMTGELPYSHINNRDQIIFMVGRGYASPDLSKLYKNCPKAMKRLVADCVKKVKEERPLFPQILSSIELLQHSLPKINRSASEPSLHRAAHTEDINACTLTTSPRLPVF

| SMILES | IC50 [1] [nM] | IC50 [2] [nM] | IC50 [3] [nM] |
| --- | --- | --- | --- |
| COn1c(=O)c(-c2c(Cl)cccc2Cl)cc2cnc(Nc3cccc(S(N)(=O)=O)c3)nc21 [Compound 4, 6-(2,6-Dichlorophenyl)-8-methoxy-2-(3-sulfamoylphenylamino)-pyrido[2,3-d]pyrimidin-7-one] | < 100 | < 500 | < 1000 |
| COn1c(=O)c(-c2ccccc2Cl)cc2cnc(Nc3cccc(CO)c3)nc21 [Compound 5, 6-(2-Chlorophenyl)-8-methoxy-2-(3-hydroxymethylphenylamino)-pyrido[2,3-d]pyrimidin-7-one] | < 100 | < 500 | < 1000 |
| COn1c(=O)c(-c2ccccc2Cl)cc2cnc(Nc3cccc(S(N)(=O)=O)c3)nc21 [Compound 6, 6-(2-Chlorophenyl)-8-methoxy-2-(3-sulfamoylphenylamino)-pyrido[2,3-d]pyrimidin-7-one] | < 100 | < 500 | < 1000 |
| COc1cccc(Nc2ncc3cc(-c4ccccc4Cl)c(=O)n(OC)c3n2)c1 [Compound 7, 6-(2-Chlorophenyl)-8-methoxy-2-(3-methoxyphenylamino)-pyrido[2,3-d]pyrimidin-7-one] | < 100 | < 1000 | < 1000 |
| COn1c(=O)c(-c2c(F)cccc2Cl)cc2cnc(Nc3ccc(OCCN(C)C)cc3)nc21 [Compound 8, 6-(2-Chloro-6-fluorophenyl)-8-methoxy-2-(4-(2-dimethylaminoethoxy)-phenylamino)-pyrido[2,3-d]pyrimidin-7-one] | < 100 | < 100 | < 1000 |
| COn1c(=O)c(-c2cc(NC(=O)c3ccccc3)ccc2Cl)cc2cnc(Nc3ccc(N4CCN(C)CC4)cc3)nc21 [Compound 9, 6-(5-Benzoylamino-2-chloro-phenyl)-8-methoxy-2-(4-(4-methylpiperazino)-phenylamino)-pyrido[2,3-d]pyrimidin-7-one] | < 100 | < 500 | < 1000 |
| COn1c(=O)c(-c2c(Cl)cccc2Cl)cc2cnc(Nc3cccc(S(=O)(=O)CCO)c3)nc21 [Compound 10, 6-(2,6-Dichlorophenyl)-8-methoxy-2-(3-(2-hydroxyethylsulfonyl)phenylamino)-pyrido[2,3-d]pyrimidin-7-one] | < 100 | < 100 | < 1000 |
| COn1c(=O)c(-c2c(Cl)cccc2Cl)cc2cnc(Nc3ccc(S(C)(=O)=O)cc3)nc21 [Compound 11, 6-(2,6-Dichlorophenyl)-8-methoxy-2-(4-methylsulfonylphenylamino)-pyrido[2,3-d]pyrimidin-7-one] | < 100 | < 100 | < 1000 |
| COn1c(=O)c(-c2c(Cl)cccc2Cl)cc2cnc(Nc3ccncc3)nc21 [Compound 13, 6-(2,6-Dichlorophenyl)-8-methoxy-2-(pyrid-4-ylamino)-pyrido[2,3-d]pyrimidin-7-one] | < 100 | < 100 | < 1000 |
| COn1c(=O)c(-c2c(Cl)cccc2Cl)cc2cnc(Nc3ccc(N4CCN(C)CC4)cc3)nc21 [Compound 14, 6-(2,6-Dichlorophenyl)-8-methoxy-2-(4-(4-methylpiperazino)-phenylamino)-pyrido[2,3-d]pyrimidin-7-one] | < 100 | < 100 | < 1000 |
| COn1c(=O)c(-c2c(F)cccc2Cl)cc2cnc(Nc3cccc(CO)c3)nc21 [Compound 15, 6-(2-Chloro-6-fluorophenyl)-8-methoxy-2-(3-hydroxymethylphenylamino)-pyrido[2,3-d]pyrimidin-7-one] | < 100 | < 100 | < 1000 |
| COn1c(=O)c(-c2ccc(Cl)cc2Cl)cc2cnc(Nc3ccc(OCCN(C)C)cc3)nc21 [Compound 16, 6-(2,4-Dichlorophenyl)-8-methoxy-2-(4-(2-dimethylaminoethoxy)-phenylamino)-pyrido[2,3-d]pyrimidin-7-one] | < 500 | < 500 | < 1000 |
| COn1c(=O)c(-c2c(Cl)cccc2Cl)cc2cnc(Nc3ccc(CCO)cc3)nc21 [Compound 17, 6-(2,6-Dichlorophenyl)-8-methoxy-2-(4-(2-hydroxyethyl)-phenylamino)-pyrido[2,3-d]pyrimidin-7-one] | < 100 | < 100 | < 1000 |
| COn1c(=O)c(-c2ccc(Cl)c(Cl)c2)cc2cnc(Nc3ccc(N4CCN(C)CC4)cc3)nc21 [Compound 18, 6-(3,4-Dichlorophenyl)-8-methoxy-2-(4-(4-methylpiperazino)-phenylamino)-pyrido[2,3-d]pyrimidin-7-one] | < 1000 | < 1000 | < 10000 |
| COn1c(=O)c(-c2ccc(Cl)cc2Cl)cc2cnc(Nc3ccc(N4CCN(C)CC4)cc3)nc21 [Compound 19, 6-(2,4-Dichlorophenyl)-8-methoxy-2-(4-(4-methylpiperazino)-phenylamino)-pyrido[2,3-d]pyrimidin-7-one] | < 100 | < 500 | < 1000 |
| COCCOn1c(=O)c(-c2ccccc2Cl)cc2cnc(Nc3ccccc3)nc21 [Compound 20] | < 100 | < 500 | < 1000 |
| COn1c(=O)c(-c2c(Cl)cccc2Cl)cc2cnc(Nc3cccc(CN4CCCC4)c3)nc21 [Compound 21, 6-(2,6-Dichlorophenyl)-8-methoxy-2-(3-(pyrrolidin-1-yl)methylphenylamino)-pyrido[2,3-d]pyrimidin-7-one] | < 100 | < 500 | < 1000 |
| COn1c(=O)c(-c2ccccc2Cl)cc2cnc(Nc3ccccc3)nc21 [Compound 22, 6-(2-Chlorophenyl)-8-methoxy-2-phenylamino-pyrido[2,3-d]pyrimidin-7-one] | < 100 | < 500 | < 10000 |
| COn1c(=O)c(-c2cc(N)ccc2Cl)cc2cnc(Nc3ccccc3)nc21 [Compound 23, 6-(5-Amino-2-chlorophenyl)-8-methoxy-2-phenylamino-pyrido[2,3-d]pyrimidin-7-one] | < 100 | < 500 | < 10000 |
| COn1c(=O)c(-c2c(Cl)cccc2Cl)cc2cnc(Nc3ccc(OCCN(C)C)cc3)nc21 [Compound 24, 6-(2,6-Dichlorophenyl)-8-methoxy-2-(4-(2-dimethylaminoethoxy)-phenylamino)-pyrido[2,3-d]pyrimidin-7-one] | < 100 | < 100 | < 1000 |

From patent US8518958B2, “Pyrido [2,3-D] pyrimidines and their use as kinase inhibitors” (Forma Therapeutics, Inc., priority 2006, dated 2013)
